# In the kinase profiling compilation of Christmann-Franck et al. (2016):
# Key:
# Assay in all cases: radiometric filter-binding kinase assay, Kinase HotSpot
# Details in all cases: compound 0.5 µM; ATP 10 µM
# AURKB (human) = AURKB (human) (UniProt Q96GD4)
# AXL (human) = AXL (human) (UniProt P30530)
# CAMK1G (human) = CAMK1G (human) (UniProt Q96NX5)
# CAMK2G (human) = CAMK2G (human) (UniProt Q13555)
# CHEK1 (human) = CHEK1 (human) (UniProt O14757)
# CHEK2 (human) = CHEK2 (human) (UniProt O96017)
# CLK3 (human) = CLK3 (human) (UniProt P49761)
# CSNK1G2 (human) = CSNK1G2 (human) (UniProt P78368)
# DAPK2 (human) = DAPK2 (human) (UniProt Q9UIK4)
# EPHB4 (human) = EPHB4 (human) (UniProt P54760)
# FLT3 (human) = FLT3 (human) (UniProt P36888)
# FRK (human) = FRK (human) (UniProt P42685)
# GSK3A (human) = GSK3A (human) (UniProt P49840)
# HIPK3 (human) = HIPK3 (human) (UniProt Q9H422)
# IGF1R (human) = IGF1R (human) (UniProt P08069)
# IGF1R (human), sequence (P08069 whole entry, looked up): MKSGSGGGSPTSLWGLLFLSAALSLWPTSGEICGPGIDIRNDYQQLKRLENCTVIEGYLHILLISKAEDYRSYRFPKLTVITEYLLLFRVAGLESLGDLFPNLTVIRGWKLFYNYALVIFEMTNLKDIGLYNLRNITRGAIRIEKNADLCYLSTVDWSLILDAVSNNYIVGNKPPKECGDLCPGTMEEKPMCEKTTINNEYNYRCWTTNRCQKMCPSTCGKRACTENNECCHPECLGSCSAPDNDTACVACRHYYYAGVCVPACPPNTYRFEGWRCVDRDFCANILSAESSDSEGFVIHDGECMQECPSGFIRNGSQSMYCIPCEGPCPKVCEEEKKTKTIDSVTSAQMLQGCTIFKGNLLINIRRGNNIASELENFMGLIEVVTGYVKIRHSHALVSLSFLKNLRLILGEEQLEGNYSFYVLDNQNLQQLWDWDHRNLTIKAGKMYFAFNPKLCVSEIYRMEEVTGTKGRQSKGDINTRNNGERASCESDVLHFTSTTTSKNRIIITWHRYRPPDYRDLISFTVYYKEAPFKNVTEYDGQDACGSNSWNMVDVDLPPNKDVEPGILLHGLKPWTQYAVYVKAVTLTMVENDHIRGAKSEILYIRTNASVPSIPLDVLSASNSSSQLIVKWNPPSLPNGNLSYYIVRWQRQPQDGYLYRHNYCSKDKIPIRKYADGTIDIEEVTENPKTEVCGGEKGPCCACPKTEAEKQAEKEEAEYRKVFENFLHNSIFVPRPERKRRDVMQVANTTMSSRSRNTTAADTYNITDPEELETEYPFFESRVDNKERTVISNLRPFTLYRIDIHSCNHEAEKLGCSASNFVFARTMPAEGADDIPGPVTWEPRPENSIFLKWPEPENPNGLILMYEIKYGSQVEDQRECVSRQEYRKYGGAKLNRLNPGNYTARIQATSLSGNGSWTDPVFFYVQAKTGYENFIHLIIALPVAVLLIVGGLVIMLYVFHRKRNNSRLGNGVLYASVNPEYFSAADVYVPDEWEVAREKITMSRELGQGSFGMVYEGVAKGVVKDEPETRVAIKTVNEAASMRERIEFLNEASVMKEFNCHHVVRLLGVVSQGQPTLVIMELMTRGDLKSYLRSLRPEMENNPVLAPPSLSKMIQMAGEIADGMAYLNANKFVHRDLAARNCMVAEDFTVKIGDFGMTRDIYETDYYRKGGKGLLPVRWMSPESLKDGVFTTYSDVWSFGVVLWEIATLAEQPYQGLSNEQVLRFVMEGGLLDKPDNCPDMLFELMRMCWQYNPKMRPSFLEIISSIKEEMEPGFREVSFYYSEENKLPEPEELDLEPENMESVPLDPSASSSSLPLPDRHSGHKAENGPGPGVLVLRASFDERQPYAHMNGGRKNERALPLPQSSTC
# IKBKB (human) = IKBKB (human) (UniProt O14920)
# [1] = target: JAK1 JH1 catalytic (human) (UniProt P23458)
# JAK1 JH1 catalytic (human), sequence (P23458 whole entry, looked up): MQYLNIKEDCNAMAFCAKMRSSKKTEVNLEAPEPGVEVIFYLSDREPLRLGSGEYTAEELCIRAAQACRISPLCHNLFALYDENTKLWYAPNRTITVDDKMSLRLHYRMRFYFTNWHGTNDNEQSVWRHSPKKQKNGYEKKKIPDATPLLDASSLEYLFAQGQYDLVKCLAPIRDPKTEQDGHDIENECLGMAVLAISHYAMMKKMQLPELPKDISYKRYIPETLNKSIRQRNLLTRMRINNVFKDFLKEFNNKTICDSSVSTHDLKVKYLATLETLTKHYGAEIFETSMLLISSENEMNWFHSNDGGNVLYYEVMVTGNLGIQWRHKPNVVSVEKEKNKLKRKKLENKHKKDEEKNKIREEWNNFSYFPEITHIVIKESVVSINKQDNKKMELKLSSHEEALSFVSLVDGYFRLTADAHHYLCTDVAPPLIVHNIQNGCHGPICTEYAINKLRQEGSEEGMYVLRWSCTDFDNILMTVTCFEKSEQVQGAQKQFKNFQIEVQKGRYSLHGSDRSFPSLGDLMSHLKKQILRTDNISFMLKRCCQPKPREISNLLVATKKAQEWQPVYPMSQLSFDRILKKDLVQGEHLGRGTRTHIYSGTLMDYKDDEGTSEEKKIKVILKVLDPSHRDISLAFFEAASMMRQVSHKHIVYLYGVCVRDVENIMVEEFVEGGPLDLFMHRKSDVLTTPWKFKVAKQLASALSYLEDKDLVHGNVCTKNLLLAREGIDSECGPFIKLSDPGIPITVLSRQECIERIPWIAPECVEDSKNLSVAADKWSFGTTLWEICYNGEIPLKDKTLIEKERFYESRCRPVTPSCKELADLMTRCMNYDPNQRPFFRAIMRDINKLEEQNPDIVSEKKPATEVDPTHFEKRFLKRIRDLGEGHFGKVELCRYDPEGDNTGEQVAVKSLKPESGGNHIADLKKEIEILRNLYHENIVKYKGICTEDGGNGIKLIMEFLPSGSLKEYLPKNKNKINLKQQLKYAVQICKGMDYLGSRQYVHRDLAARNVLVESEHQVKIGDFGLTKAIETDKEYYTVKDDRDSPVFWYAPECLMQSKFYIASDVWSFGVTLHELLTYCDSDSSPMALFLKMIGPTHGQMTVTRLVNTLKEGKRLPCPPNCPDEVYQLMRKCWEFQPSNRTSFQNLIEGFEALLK
# MAP3K2 (human) = MAP3K2 (human) (UniProt Q9Y2U5)
# MAP3K5 (human) = MAP3K5 (human) (UniProt Q99683)
# MAP3K7 TAB1 (human) = MAP3K7 TAB1 (human) (UniProt O43318+Q15750)
# MAP4K2 (human) = MAP4K2 (human) (UniProt Q12851)
# MAPK10 (human) = MAPK10 (human) (UniProt P53779)
# MAPKAPK3 (human) = MAPKAPK3 (human) (UniProt Q16644)
# MELK (human) = MELK (human) (UniProt Q14680)
# NEK11 (human) = NEK11 (human) (UniProt Q8NG66)
# NTRK2 (human) = NTRK2 (human) (UniProt Q16620)
# NUAK1 (human) = NUAK1 (human) (UniProt O60285)
# PAK3 (human) = PAK3 (human) (UniProt O75914)
# PNCK (human) = PNCK (human) (UniProt Q6P2M8)
# PRKCZ (human) = PRKCZ (human) (UniProt Q05513)
# RIPK2 (human) = RIPK2 (human) (UniProt O43353)
# SGK2 (human) = SGK2 (human) (UniProt Q9HBY8)
# SGK2 (human), sequence (Q9HBY8 whole entry, looked up): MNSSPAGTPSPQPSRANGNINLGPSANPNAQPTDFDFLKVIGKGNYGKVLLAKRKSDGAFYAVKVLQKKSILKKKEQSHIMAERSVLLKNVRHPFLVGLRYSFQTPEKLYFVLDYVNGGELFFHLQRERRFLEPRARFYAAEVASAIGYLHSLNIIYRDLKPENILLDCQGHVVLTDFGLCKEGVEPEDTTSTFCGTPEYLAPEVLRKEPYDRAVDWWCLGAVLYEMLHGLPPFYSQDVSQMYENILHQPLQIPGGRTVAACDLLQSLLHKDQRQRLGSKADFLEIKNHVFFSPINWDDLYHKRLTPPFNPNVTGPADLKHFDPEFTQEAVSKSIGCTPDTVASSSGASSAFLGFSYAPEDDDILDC
# SIK2 (human) = SIK2 (human) (UniProt Q9H0K1)
# SLK (human) = SLK (human) (UniProt Q9H2G2)
# SRMS (human) = SRMS (human) (UniProt Q9H3Y6)
# STK16 (human) = STK16 (human) (UniProt O75716)
# SYK (human) = SYK (human) (UniProt P43405)
# TAOK1 (human) = TAOK1 (human) (UniProt Q7L7X3)
# TAOK1 (human), sequence (Q7L7X3 whole entry, looked up): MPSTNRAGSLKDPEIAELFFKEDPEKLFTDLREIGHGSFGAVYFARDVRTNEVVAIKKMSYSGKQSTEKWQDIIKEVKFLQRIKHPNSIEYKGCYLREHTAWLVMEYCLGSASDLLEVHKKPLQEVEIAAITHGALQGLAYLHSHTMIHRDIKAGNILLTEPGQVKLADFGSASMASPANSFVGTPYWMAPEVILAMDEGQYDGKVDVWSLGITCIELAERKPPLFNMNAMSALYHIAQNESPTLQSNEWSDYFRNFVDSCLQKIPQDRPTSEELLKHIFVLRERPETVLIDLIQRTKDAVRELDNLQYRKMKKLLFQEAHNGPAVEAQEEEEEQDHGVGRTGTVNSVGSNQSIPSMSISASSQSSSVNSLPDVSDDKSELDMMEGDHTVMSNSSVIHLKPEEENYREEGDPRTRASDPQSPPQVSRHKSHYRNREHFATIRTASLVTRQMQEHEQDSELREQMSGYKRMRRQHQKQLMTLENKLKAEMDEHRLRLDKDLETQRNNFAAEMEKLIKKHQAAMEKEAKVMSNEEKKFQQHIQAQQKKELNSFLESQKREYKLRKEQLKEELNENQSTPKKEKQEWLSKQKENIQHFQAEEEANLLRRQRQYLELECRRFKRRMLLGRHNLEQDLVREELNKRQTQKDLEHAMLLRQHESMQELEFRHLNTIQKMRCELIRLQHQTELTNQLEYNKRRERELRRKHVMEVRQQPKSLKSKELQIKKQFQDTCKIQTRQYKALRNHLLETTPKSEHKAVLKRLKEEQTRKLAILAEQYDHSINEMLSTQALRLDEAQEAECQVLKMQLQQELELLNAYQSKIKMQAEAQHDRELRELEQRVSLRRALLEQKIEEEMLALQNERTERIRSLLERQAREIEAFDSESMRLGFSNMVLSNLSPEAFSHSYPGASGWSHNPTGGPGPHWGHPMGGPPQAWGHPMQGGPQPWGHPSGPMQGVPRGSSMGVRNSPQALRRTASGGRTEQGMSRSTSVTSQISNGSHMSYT
# TBK1 (human) = TBK1 (human) (UniProt Q9UHD2)
# TGFBR2 (human) = TGFBR2 (human) (UniProt P37173)
# TGFBR2 (human), sequence (P37173 whole entry, looked up): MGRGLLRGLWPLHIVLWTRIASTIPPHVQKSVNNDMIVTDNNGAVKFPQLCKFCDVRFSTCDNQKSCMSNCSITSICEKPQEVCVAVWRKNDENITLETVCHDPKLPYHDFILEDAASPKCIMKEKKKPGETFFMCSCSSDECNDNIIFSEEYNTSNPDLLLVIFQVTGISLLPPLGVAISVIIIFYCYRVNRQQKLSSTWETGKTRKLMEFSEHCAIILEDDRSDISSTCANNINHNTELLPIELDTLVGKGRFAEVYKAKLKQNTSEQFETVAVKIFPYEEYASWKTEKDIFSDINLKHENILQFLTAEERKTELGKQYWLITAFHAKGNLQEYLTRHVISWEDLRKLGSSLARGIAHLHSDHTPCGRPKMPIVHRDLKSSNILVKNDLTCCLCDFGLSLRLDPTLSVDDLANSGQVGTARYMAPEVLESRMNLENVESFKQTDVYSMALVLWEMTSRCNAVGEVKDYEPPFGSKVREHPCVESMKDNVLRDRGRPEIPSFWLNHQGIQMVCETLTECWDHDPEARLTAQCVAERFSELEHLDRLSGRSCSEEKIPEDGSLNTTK
# TSSK1B (human) = TSSK1B (human) (UniProt Q9BXA7)
# VRK1 (human) = VRK1 (human) (UniProt Q99986)
# VRK1 (human), sequence (Q99986 whole entry, looked up): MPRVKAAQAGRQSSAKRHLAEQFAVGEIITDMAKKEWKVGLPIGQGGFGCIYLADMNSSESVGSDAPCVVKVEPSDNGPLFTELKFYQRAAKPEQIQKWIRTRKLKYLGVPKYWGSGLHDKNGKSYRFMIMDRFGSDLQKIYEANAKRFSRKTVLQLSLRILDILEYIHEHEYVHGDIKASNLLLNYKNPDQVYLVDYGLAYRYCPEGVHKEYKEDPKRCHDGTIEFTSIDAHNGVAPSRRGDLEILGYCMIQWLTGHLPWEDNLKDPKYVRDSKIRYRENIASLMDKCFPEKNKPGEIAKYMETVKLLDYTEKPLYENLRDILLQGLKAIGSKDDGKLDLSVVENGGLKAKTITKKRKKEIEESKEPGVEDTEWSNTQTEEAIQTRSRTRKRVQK
structure (smiles),measurement,setting,value
Oc1ccc(Nc2nc(-c3ccc(Cl)cc3)cs2)cc1,residual activity,AURKB (human),102%
same,residual activity,AXL (human),98.5%
same,residual activity,CAMK1G (human),106%
same,residual activity,CAMK2G (human),90.6%
same,residual activity,CHEK1 (human),99.4%
same,residual activity,CHEK2 (human),97.9%
same,residual activity,CLK3 (human),92.6%
same,residual activity,CSNK1G2 (human),91.8%
same,residual activity,DAPK2 (human),107%
same,residual activity,EPHB4 (human),89.6%
same,residual activity,FLT3 (human),99%
same,residual activity,FRK (human),106%
same,residual activity,GSK3A (human),97.4%
same,residual activity,HIPK3 (human),109%
same,residual activity,IGF1R (human),102%
same,residual activity,IKBKB (human),104%
same,residual activity,[1],97.1%
same,residual activity,MAP3K2 (human),92.1%
same,residual activity,MAP3K5 (human),108%
same,residual activity,MAP3K7 TAB1 (human),95.3%
same,residual activity,MAP4K2 (human),103%
same,residual activity,MAPK10 (human),101%
same,residual activity,MAPKAPK3 (human),94.1%
same,residual activity,MELK (human),100%
same,residual activity,NEK11 (human),77.1%
same,residual activity,NTRK2 (human),107%
same,residual activity,NUAK1 (human),90.7%
same,residual activity,PAK3 (human),124%
same,residual activity,PNCK (human),100%
same,residual activity,PRKCZ (human),105%
same,residual activity,RIPK2 (human),96.4%
same,residual activity,SGK2 (human),108%
same,residual activity,SIK2 (human),90.7%
same,residual activity,SLK (human),110%
same,residual activity,SRMS (human),106%
same,residual activity,STK16 (human),106%
same,residual activity,SYK (human),93.8%
same,residual activity,TAOK1 (human),97.1%
same,residual activity,TBK1 (human),95.2%
same,residual activity,TGFBR2 (human),112%
same,residual activity,TSSK1B (human),119%
same,residual activity,VRK1 (human),99.8%
O=C1Cc2c([nH]c3ccc(Br)cc23)-c2ccccc2N1,residual activity,AURKB (human),84.3%
same,residual activity,AXL (human),101%
same,residual activity,CAMK1G (human),97.4%
same,residual activity,CAMK2G (human),116%
same,residual activity,CHEK1 (human),89%
same,residual activity,CHEK2 (human),59%
same,residual activity,CLK3 (human),99.3%
same,residual activity,CSNK1G2 (human),102%
same,residual activity,DAPK2 (human),100%
same,residual activity,EPHB4 (human),100%
same,residual activity,FLT3 (human),47.7%
same,residual activity,FRK (human),97.4%
same,residual activity,GSK3A (human),5.87%
same,residual activity,HIPK3 (human),109%
same,residual activity,IGF1R (human),103%
same,residual activity,IKBKB (human),101%
same,residual activity,[1],102%
same,residual activity,MAP3K2 (human),94.2%
same,residual activity,MAP3K5 (human),99.2%
same,residual activity,MAP3K7 TAB1 (human),84.2%
same,residual activity,MAP4K2 (human),20.1%
same,residual activity,MAPK10 (human),89.6%
same,residual activity,MAPKAPK3 (human),100%
same,residual activity,MELK (human),74.8%
same,residual activity,NEK11 (human),107%
same,residual activity,NTRK2 (human),95%
same,residual activity,NUAK1 (human),14.6%
same,residual activity,PAK3 (human),96.6%
same,residual activity,PNCK (human),99.6%
same,residual activity,PRKCZ (human),98.3%
same,residual activity,RIPK2 (human),75.9%
same,residual activity,SGK2 (human),98.9%
same,residual activity,SIK2 (human),63.5%
same,residual activity,SLK (human),95.7%
same,residual activity,SRMS (human),105%
same,residual activity,STK16 (human),98.9%
same,residual activity,SYK (human),81.5%
same,residual activity,TAOK1 (human),99.4%
same,residual activity,TBK1 (human),93%
same,residual activity,TGFBR2 (human),74.2%
same,residual activity,TSSK1B (human),80.4%
same,residual activity,VRK1 (human),87.3%
O=C(Nc1cccc(Nc2cc(Nc3cccc(C(F)(F)F)c3)ncn2)c1)C1CC1,residual activity,AURKB (human),98.9%
same,residual activity,AXL (human),98.7%
same,residual activity,CAMK1G (human),96.9%
same,residual activity,CAMK2G (human),96.1%
same,residual activity,CHEK1 (human),105%
same,residual activity,CHEK2 (human),99.5%
same,residual activity,CLK3 (human),102%
same,residual activity,CSNK1G2 (human),99.1%
same,residual activity,DAPK2 (human),99%
same,residual activity,EPHB4 (human),97.8%
same,residual activity,FLT3 (human),97.9%
same,residual activity,FRK (human),102%
same,residual activity,GSK3A (human),101%
same,residual activity,HIPK3 (human),97%
same,residual activity,IGF1R (human),105%
same,residual activity,IKBKB (human),100%
same,residual activity,[1],103%
same,residual activity,MAP3K2 (human),91.8%
same,residual activity,MAP3K5 (human),104%
same,residual activity,MAP3K7 TAB1 (human),99.3%
same,residual activity,MAP4K2 (human),116%
same,residual activity,MAPK10 (human),83.4%
same,residual activity,MAPKAPK3 (human),104%
same,residual activity,MELK (human),104%
same,residual activity,NEK11 (human),94.3%
same,residual activity,NTRK2 (human),100%
same,residual activity,NUAK1 (human),102%
same,residual activity,PAK3 (human),101%
same,residual activity,PNCK (human),101%
same,residual activity,PRKCZ (human),104%
same,residual activity,RIPK2 (human),80.8%
same,residual activity,SGK2 (human),99%
same,residual activity,SIK2 (human),89.4%
same,residual activity,SLK (human),102%
same,residual activity,SRMS (human),95.2%
same,residual activity,STK16 (human),107%
same,residual activity,SYK (human),94.9%
same,residual activity,TAOK1 (human),100%
same,residual activity,TBK1 (human),99%
same,residual activity,TGFBR2 (human),105%
same,residual activity,TSSK1B (human),104%
same,residual activity,VRK1 (human),94%
